The conditions of this data set: thioether bond.
Setting [1] is: from H-Gly-Pro-Ala(3-Cl)-Leu-Gly-Val-Leu-Gly-Lys-Leu-Hcy-Pro-Gly-OH, 29-membered ring, Na2CO3 (1 mg/mL, pH 10.5), ACN/H2O 1:1, 25.0 °C.

The structures appear in SMILES notation. Where two headings read alike, the source gives them in different places.

`CC(C)C[C@@H]1NC(=O)[C@@H](NC(=O)[C@@H]2CCCN2C(=O)CN)CCSCC[C@@H](C(=O)N2CCC[C@H]2C(=O)NCC(=O)O)NC(=O)[C@H](CC(C)C)NC(=O)[C@H](CCCCN)NC(=O)CNC(=O)[C@H](CC(C)C)NC(=O)[C@H](C(C)C)NC(=O)CNC1=O` [2G3-EETE] returned a ring closure, yield after HPLC (from H-Gly-Pro-Abu(4-Cl)-Leu-Gly-Val-Leu-Gly-Lys-Leu-Hcy-Pro-Gly-OH, 30-membered ring, Na2CO3 (1 mg/mL, pH 10.5), ACN/H2O 1:1, 25.0 °C) of 75%. Take `CC(C)C[C@@H]1NC(=O)[C@@H](NC(=O)[C@@H]2CCCN2C(=O)CN)CCSC[C@@H](C(=O)N2CCC[C@H]2C(=O)NCC(=O)O)NC(=O)[C@H](CC(C)C)NC(=O)[C@H](CCCCN)NC(=O)CNC(=O)[C@H](CC(C)C)NC(=O)[C@H](C(C)C)NC(=O)CNC1=O` [2G3-EMTE]: under “from H-Gly-Pro-Abu(4-Cl)-Leu-Gly-Val-Leu-Gly-Lys-Leu-Cys-Pro-Gly-OH, 29-membered ring, Na2CO3 (1 mg/mL, pH 10.5), ACN/H2O 1:1, 25.0 °C”, the ring closure, yield after HPLC was found to be 84%. As to `CC(C)C[C@@H]1NC(=O)[C@@H](NC(=O)[C@@H]2CCCN2C(=O)CN)CSCC[C@@H](C(=O)N2CCC[C@H]2C(=O)NCC(=O)O)NC(=O)[C@H](CC(C)C)NC(=O)[C@H](CCCCN)NC(=O)CNC(=O)[C@H](CC(C)C)NC(=O)[C@H](C(C)C)NC(=O)CNC1=O` [2G3-METE], the ring closure, yield after HPLC (from H-Gly-Pro-Cys-Leu-Gly-Val-Leu-Gly-Lys-Leu-Abu(4-Cl)-Pro-Gly-OH, 29-membered ring, Na2CO3 (1 mg/mL, pH 10.5), ACN/H2O 1:1, 25.0 °C) turned out to be 36%. Regarding `CC(C)C[C@@H]1NC(=O)[C@@H](NC(=O)[C@@H]2CCCN2C(=O)CN)CSC[C@@H](C(=O)N2CCC[C@H]2C(=O)NCC(=O)O)NC(=O)[C@H](CC(C)C)NC(=O)[C@H](CCCCN)NC(=O)CNC(=O)[C@H](CC(C)C)NC(=O)[C@H](C(C)C)NC(=O)CNC1=O` [2G3-MMTE], the ring closure, yield after HPLC (from H-Gly-Pro-Ala(3-Cl)-Leu-Gly-Val-Leu-Gly-Lys-Leu-Cys-Pro-Gly-OH, 28-membered ring, Na2CO3 (1 mg/mL, pH 10.5), ACN/H2O 1:1, 25.0 °C) came to 87%. As for `CC(C)C[C@@H]1NC(=O)[C@@H](NC(=O)[C@@H]2CCCN2C(=O)CNC(=O)[C@H](C)N)CCSC[C@@H](C(=O)N2CCC[C@H]2C(=O)NCC(=O)O)NC(=O)[C@H](CC(C)C)NC(=O)[C@H](CCCCN)NC(=O)CNC(=O)[C@H](CC(C)C)NC(=O)[C@H](C(C)C)NC(=O)CNC1=O` [3G3-EMTE], the ring closure, yield after HPLC (from H-Ala-Gly-Pro-Abu(4-Cl)-Leu-Gly-Val-Leu-Gly-Lys-Leu-Cys-Pro-Gly-OH, 29-membered ring, Na2CO3 (1 mg/mL, pH 10.5), ACN/H2O 1:1, 0.71 mM, 25.0 °C) came out at 94%. As for `CC(C)C[C@@H]1NC(=O)[C@@H](NC(=O)[C@@H]2CCCN2C(=O)CNC(=O)[C@H](C)NC(=O)OCC2c3ccccc3-c3ccccc32)CCSC[C@@H](C(=O)N2CCC[C@H]2C(=O)NCC(=O)O)NC(=O)[C@H](CC(C)C)NC(=O)[C@H](CCCCN)NC(=O)CNC(=O)[C@H](CC(C)C)NC(=O)[C@H](C(C)C)NC(=O)CNC1=O` [3G3-EMTE], the ring closure, yield after HPLC (from Fmoc-Ala-Gly-Pro-Abu(4-Cl)-Leu-Gly-Val-Leu-Gly-Lys-Leu-Cys-Pro-Gly-OH, 29-membered ring, Na2CO3 (1 mg/mL, pH 10.5), ACN/H2O 1:1, 0.63 mM, 25.0 °C, 2 steps) amounted to 33%.

For the setting “from H-Ala-Gly-Pro-Ala(3-Cl)-Leu-Gly-Val-Leu-Gly-Lys-Leu-Cys-Pro-Gly-OH, 28-membered ring, Na2CO3 (1 mg/mL, pH 10.5), ACN/H2O 1:1, 25.0 °C”, `CC(C)C[C@@H]1NC(=O)[C@@H](NC(=O)[C@@H]2CCCN2C(=O)CNC(=O)[C@H](C)N)CSC[C@@H](C(=O)N2CCC[C@H]2C(=O)NCC(=O)O)NC(=O)[C@H](CC(C)C)NC(=O)[C@H](CCCCN)NC(=O)CNC(=O)[C@H](CC(C)C)NC(=O)[C@H](C(C)C)NC(=O)CNC1=O` [3G3-MMTE] had a ring closure, yield after HPLC of 89%. The compound `CC[C@H](C)[C@@H]1NC(=O)[C@H](CC(C)C)NC(=O)[C@@H](NC(=O)[C@@H]2CCCN2C(=O)CN)CSC[C@@H](C(N)=O)NC(=O)[C@H](CCCNC(=N)N)NC(=O)[C@H](CC(=O)O)NC(=O)[C@@H]2CCCN2C(=O)[C@H](C)NC(=O)[C@H](CC(C)C)NC1=O` [CB10-MMTE] showed a ring closure, yield after HPLC (from H-Gly-Pro-Ala(3-Br)-Leu-Ile-Leu-Ala-Pro-Asp-Arg-Cys-NH2, 28-membered ring, Na2CO3 (pH 10.5), H2O, 0.15 mM) of 27%. `CC(C)C[C@@H]1NC(=O)[C@H](CCCCN)NC(=O)CNC(=O)[C@H](CC(C)C)NC(=O)[C@H](C(C)C)NC(=O)CNC(=O)[C@H](CC(C)C)NC(=O)[C@@H](N)CCSCC[C@@H](C(N)=O)NC1=O` [G3-EETE] came in with a ring closure, yield after HPLC (from H-Abu(4-Cl)-Leu-Gly-Val-Leu-Gly-Lys-Leu-Hcy-NH2, 30-membered ring, Na2CO3 (1 mg/mL, pH 10.5), ACN/H2O 1:1, 25.0 °C) of 48%. As for `CC(C)C[C@@H]1NC(=O)[C@H](CCCCN)NC(=O)CNC(=O)[C@H](CC(C)C)NC(=O)[C@H](C(C)C)NC(=O)CNC(=O)[C@H](CC(C)C)NC(=O)[C@@H](N)CCSC[C@@H](C(N)=O)NC1=O` [G3-EMTE], the ring closure, yield after HPLC (from H-Abu(4-Cl)-Leu-Gly-Val-Leu-Gly-Lys-Leu-Cys-NH2, 29-membered ring, Na2CO3 (1 mg/mL, pH 10.5), ACN/H2O 1:1, 25.0 °C) came to 51%. Turning to `CC(C)C[C@@H]1NC(=O)[C@H](CCCCN)NC(=O)CNC(=O)[C@H](CC(C)C)NC(=O)[C@H](C(C)C)NC(=O)CNC(=O)[C@H](CC(C)C)NC(=O)[C@@H](N)CSCC[C@@H](C(N)=O)NC1=O` [G3-METE], where the note is “from H-Ala(3-Cl)-Leu-Gly-Val-Leu-Gly-Lys-Leu-Hcy-NH2, 29-membered ring, Na2CO3 (1 mg/mL, pH 10.5), ACN/H2O 1:1, 25.0 °C”, the ring closure, yield after HPLC was 52%. `CC(C)C[C@@H]1NC(=O)[C@H](CCCCN)NC(=O)CNC(=O)[C@H](CC(C)C)NC(=O)[C@H](C(C)C)NC(=O)CNC(=O)[C@H](CC(C)C)NC(=O)[C@@H](N)CSC[C@@H](C(N)=O)NC1=O` [G3-MMTE] registered a ring closure, yield after HPLC (from H-Ala(3-Cl)-Leu-Gly-Val-Leu-Gly-Lys-Leu-Cys-NH2, 28-membered ring, Na2CO3 (1 mg/mL, pH 10.5), ACN/H2O 1:1, 25.0 °C) of 49%.

With `CC(C)C[C@@H]1NC(=O)[C@@H](NC(=O)[C@@H]2CCCN2C(=O)CNC(=O)[C@H](C)NC(=O)OCC2c3ccccc3-c3ccccc32)CCSC[C@@H](C(=O)N2CCC[C@H]2C(=O)NCC(=O)O)NC(=O)[C@H](CC(C)C)NC(=O)[C@H](CCCCN)NC(=O)CNC(=O)[C@H](CC(C)C)NC(=O)[C@H](C(C)C)NC(=O)CNC1=O` [N^α -Fmoc-3G3-EMTE], under “from Fmoc-Ala-Gly-Pro-Abu(4-Cl)-Leu-Gly-Val-Leu-Gly-Lys-Leu-Cys-Pro-Gly-OH, 29-membered ring, Na2CO3 (1 mg/mL, pH 10.5), ACN/H2O 1:1, 0.63 mM, 25.0 °C”, the ring closure, yield after HPLC came out at 19%. Under setting [1], `CC(C)C[C@@H]1NC(=O)[C@@H](NC(=O)[C@@H]2CCCN2C(=O)CN)CSCC[C@@H](C(=O)N2CCC[C@H]2C(=O)NCC(=O)O)NC(=O)[C@H](CC(C)C)NC(=O)[C@H](CCCCN)NC(=O)CNC(=O)[C@H](CC(C)C)NC(=O)[C@H](C(C)C)NC(=O)CNC1=O` [d-2G3-METE] yielded a ring closure, yield after HPLC of 16%. Compound `CC(C)C[C@@H]1NC(=O)[C@@H](NC(=O)[C@@H]2CCCN2C(=O)CN)CSCC[C@@H](C(=O)N2CCC[C@H]2C(=O)NCC(=O)O)NC(=O)[C@H](CC(C)C)NC(=O)[C@H](CCCCN)NC(=O)CNC(=O)[C@H](CC(C)C)NC(=O)[C@H](C(C)C)NC(=O)CNC1=O` [l-2G3-METE] yielded a ring closure, yield after HPLC under setting [1] of 29%.

These data come from patent US6031073A, “Cyclic polypeptides comprising a thioether linkage and methods for their preparation” (La Jolla Pharmaceutical Company, priority 1997, dated 2000).
